Experimental data as given in ChEMBL document CHEMBL1201862, “PubChem BioAssay data set” (2004).
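Protocol summary: plate cells (96-well), add compound at 5 concentrations, incubate 48 h, interpolate endpoints linearly. Here, GI50 denotes the concentration required for 50% inhibition of growth.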 Activity calls are given as the source filed them. Cut-off read from the data, not from the text of the source: active = GI50 up to about 1.1 µM and inactive = higher.

Assays:
Test in all cases: NCI tumour cell line growth inhibition, 48 h
ACHN = tested on: ACHN
KM12 = tested on: KM12
SF-268 = tested on: SF-268
SK-MEL-28 = tested on: SK-MEL-28
HT-29 = tested on: HT-29
CCRF-CEM = tested on: CCRF-CEM
SN12C = tested on: SN12C
SR = tested on: SR
NCI-H23 = tested on: NCI-H23
SK-MEL-5 = tested on: SK-MEL-5
CAKI-1 = tested on: CAKI-1
SNB-19 = tested on: SNB-19
MOLT-4 = tested on: MOLT-4
SW-620 = tested on: SW-620
UO-31 = tested on: UO-31
HOP-92 = tested on: HOP-92
DU-145 = tested on: DU-145
A498 = tested on: A498

Measured: GI50

COc1ccc(-c2onc(-c3c(C)cc(C)cc3C)c2C2=NCCCN2)cc1
inactive: ACHN 64.1 µM | KM12 46.3 µM | SF-268 36.7 µM | SK-MEL-28 36.4 µM | HT-29 31.2 µM | CCRF-CEM 35 µM | SN12C 50.8 µM | SR 36.6 µM | NCI-H23 > 100 µM | SK-MEL-5 23 µM | CAKI-1 13.6 µM | SNB-19 35.1 µM | MOLT-4 41 µM | SW-620 46.2 µM | UO-31 21.1 µM

CCSc1n/c(=C\c2ccco2)c2nncn12
inactive: ACHN > 100 µM | KM12 > 100 µM | SF-268 > 100 µM | SK-MEL-28 > 100 µM | HT-29 > 100 µM | CCRF-CEM > 100 µM | SN12C > 100 µM | HOP-92 40.7 µM | DU-145 > 100 µM | SR > 100 µM | NCI-H23 > 100 µM | SK-MEL-5 > 100 µM | SNB-19 > 100 µM | MOLT-4 > 100 µM | SW-620 > 100 µM | UO-31 > 100 µM

C(=N/c1ccccc1C1SCCCS1)/c1ccccc1
inactive: ACHN > 100 µM | A498 > 100 µM | KM12 > 100 µM | SF-268 > 100 µM | SK-MEL-28 > 100 µM | HT-29 > 100 µM | CCRF-CEM > 100 µM | SN12C > 100 µM | HOP-92 > 100 µM | DU-145 > 100 µM | NCI-H23 > 100 µM | SK-MEL-5 > 100 µM | CAKI-1 > 100 µM | SNB-19 > 100 µM | MOLT-4 > 100 µM | SW-620 > 100 µM | UO-31 > 100 µM

O=C1[C@@H]2C(c3ccccc3[N+](=O)[O-])=NO[C@@H]2C(=O)N1c1ccc(Cc2ccc(N3C(=O)[C@H]4C(c5ccccc5[N+](=O)[O-])=NO[C@H]4C3=O)cc2)cc1
inactive: ACHN > 100 µM | A498 > 100 µM | KM12 > 100 µM | SF-268 > 100 µM | SK-MEL-28 > 100 µM | HT-29 > 100 µM | CCRF-CEM > 100 µM | SN12C > 100 µM | HOP-92 > 100 µM | SR > 100 µM | NCI-H23 > 100 µM | SK-MEL-5 > 100 µM | CAKI-1 > 100 µM | SNB-19 > 100 µM | MOLT-4 > 100 µM | SW-620 > 100 µM | UO-31 > 100 µM

COc1ccc(CC(=O)NCCc2ccc(OC)c(OC)c2OC)cc1
inactive: ACHN > 100 µM | A498 > 100 µM | KM12 > 100 µM | SF-268 > 100 µM | SK-MEL-28 > 100 µM | HT-29 > 100 µM | CCRF-CEM > 100 µM | SN12C > 100 µM | SR > 100 µM | NCI-H23 > 100 µM | SK-MEL-5 > 100 µM | SNB-19 > 100 µM | MOLT-4 > 100 µM | SW-620 > 100 µM | UO-31 > 100 µM

COC(=O)[C@]1(c2cc3ccccc3n2S(=O)(=O)c2ccccc2)CC2CN(C(=O)OCc3ccccc3)C1C1OC(C)(C)OC21 (some centres undefined)
inactive: ACHN > 100 µM | KM12 > 100 µM | SK-MEL-28 1.26 µM | HT-29 > 100 µM | CCRF-CEM > 100 µM | SN12C > 100 µM | HOP-92 10.2 µM | DU-145 > 100 µM | NCI-H23 > 100 µM | SK-MEL-5 > 100 µM | CAKI-1 > 100 µM | MOLT-4 > 100 µM | SW-620 > 100 µM | UO-31 > 100 µM
